The values that follow come from a melting point compilation (Tetko et al.; mined from patent text by program, amines drawn as free bases though some values may be those of a salt).

Some results are limits rather than exact numbers.

`COc1cc(C2C3=C(COC3=O)Nc3ccc4cc(C)[nH]c4c32)ccc1F` (stereo not given): the melting point (commonly the temperature, or range, at which the solid turns liquid) lay within 198 to 199 °C.

`CN(C)C(=O)Cn1c(-c2ccc(F)cc2)nc2cccnc21` returned a melting point of 180 to 183 °C.

In the case of `Cc1ccc(S(=O)(=O)N2CCCC(CC(C#N)(c3ccc(F)cc3)c3ccc(F)cc3)C2)cc1` (stereo not given), the melting point was 142 to 143 °C.

Turning to `CC(=O)OCc1ccc(Sc2ccccc2C(=O)N(C)C)c([N+](=O)[O-])c1`, the melting point was 117 to 118 °C.

For the molecule `CC(C)OC(=O)C(C)Oc1ccc(COc2ccc(Cl)cc2)cc1` (stereo not given), the melting point amounted to 81 °C.

Turning to `CCCCOc1cc(/C=C(\OCC)C(=O)O)ccc1OCCc1ccc(NS(=O)(=O)CCCC)cc1`, the melting point turned out to be 164 °C.

Molecule `Cc1ccc2c(Cl)cc(I)c(O)c2n1` registered a melting point of 85 to 93 °C.

Molecule `O=C1NCc2c1c1c3cc(O)ccc3[nH]c1c1[nH]c3ccc(O)cc3c21` had a melting point greater than 330 °C.

Molecule `c1cc(Sc2cccc3cnccc23)c2ccncc2c1` came in with a melting point of 138 to 140 °C.

`O=C(NC(=O)c1ccccc1Cl)Nc1ccc(-c2ccc(Cl)cc2)cn1` returned a melting point of 228 to 231 °C.

For `CC1Cc2c(N=C=O)ccc(Cl)c2O1` (stereo not given), the melting point was in the range of 169 to 171 °C.

Molecule `NS(=O)(=O)c1cc2c(s1)S(=O)CC(=O)N2` (stereo not given) came in with a melting point of 222 to 223 °C.

In the case of `O=C(CCCc1ccccc1)N[C@H](Cc1ccc(F)cc1)[C@@H](O)c1ccc(F)cc1` (racemic), the melting point lay within 147 to 148 °C.

The molecule `CC(C)(C)C(NC(=O)c1cccc(Br)c1)Nc1c(Nc2cccnc2Cl)c(=O)c1=O` (stereo not given) yielded a melting point of 257 to 259 °C.

Take `CC(C)c1cc(CO)n(Cc2ccc(Cl)cc2Cl)n1`: the melting point lay within 89 to 90 °C.

With `CNC(=O)[C@@H](NC(=O)[C@@H](CC(=O)O)n1ccc(-c2ccc(-c3ccc(C#N)cc3)cc2)c1)C(C)(C)C`, the melting point lay within 142 to 144 °C.

Turning to `Cc1ccc(S(=O)(=O)n2cc(C[C@H]3CCCN3C)c3cc(Br)ccc32)cc1`, the melting point lay within 98 to 104 °C.

In turn, `Cn1nc2c(oc3cc(Cl)ccc32)c1N` showed a melting point of 210 to 211 °C.

`COc1cccc(C(=O)OC(=C2C(=O)N(C(N)=O)c3cc(Cl)c(F)cc32)c2cccs2)c1` came in with a melting point of 196 to 220 °C.

Turning to `O=C1C=C(Nc2ccccc2)C(=O)c2nccnc21`, the melting point fell in the range of 203 to 205 °C.

In the case of `Oc1ccc(CCNc2ncnc3nccnc23)cc1`, the melting point is greater than 210 °C.

Molecule `COc1cc(COc2cccc3c2CN(C2CCC(=O)NC2=O)C3=O)ccc1OCCN(C)C` (stereo not given) had a melting point of 190 to 192 °C.

In the case of `COC(=O)c1ccc(C#N)s1`, the melting point is 76 to 78 °C.

Take `Cc1ccc2cc(-c3ccc4c(c3)C(C)(C)CCC4(C)C)ccc2c1`: the melting point lay in the range of 173 to 175 °C.

The molecule `O=C(Nc1nn[nH]n1)c1cnc(N2CCOCC2)nc1OC1CCCCCC1` yielded a melting point of 287 °C.

`Cc1nc(C)c(Cl)c(NCc2ccc(Oc3ccc4ncc([N+](=O)[O-])n4n3)cc2)n1` gave a melting point of 203 °C.

`O=C(O)c1ccc2nc3ccc(C(=O)O)nn3c(=O)c2c1` gave a melting point greater than 285 °C.

With `O=CC1CC1Nc1nccc(-n2nnc3ccccc32)n1` (stereo not given), the melting point lay in the range of 99 to 100 °C.

`COc1cc2c(cc1OC)C(O)(CN)CCC2` (stereo not given) gave a melting point of 107 to 109 °C.

Molecule `CCCCc1ncc(/C=C(\C)C(=O)O)n1Cc1ccccc1Cl` returned a melting point of 228 to 229 °C.

`C=CCN(CC(=O)OC(C)(C)C)c1c(N)c(=O)c1=O` displayed a melting point of 175 to 176 °C.

The molecule `O=C(c1ccc(F)cc1)c1ccc(-c2ccccc2)cc1` displayed a melting point of 149 °C.

The molecule `CC(Cc1cccc(N)c1)NC=O` (stereo not given) yielded a melting point of 107 to 108 °C.

`CCCCCCCCCCCCCCS(=O)(=O)c1cc(S(C)(=O)=O)ccc1-n1oc(C(C)(C)C)c(CCl)c1=O` displayed a melting point of 110 to 111 °C.

Molecule `Nc1cccc(-c2ccc(Cl)nn2)c1` had a melting point of 118 to 121 °C.

The molecule `NS(=O)(=O)c1ccc(NC(=O)CCl)c(Br)c1` displayed a melting point of 174 to 175 °C.

`Nc1cccc(-c2nc3ncccc3o2)c1` returned a melting point of 179 to 180 °C.

`CON=Cc1ccc2c(c1)ncn2-c1cccc(Br)c1` gave a melting point of 119 to 120 °C.

`Cn1c2cc(C=O)ccc2c2nc3ccccc3nc21` displayed a melting point of 237 to 238 °C.

In turn, `CC(O)c1nsc2nc3ccccc3n12` (stereo not given) gave a melting point of 174 to 175 °C.

In the case of `C=CCNCCC(=O)O`, the melting point fell in the range of 194 to 195 °C.

In the case of `c1ccc(COc2ncnc3nc[nH]c23)cc1`, the melting point is 175 to 177 °C.

Molecule `COc1ccc(CCN2CCC(C(O)(c3ccccc3)c3nc4ccccc4s3)CC2)cc1` (stereo not given) gave a melting point of 67 to 70 °C.

With `COC(=O)c1ccc(COc2ccc3cc(-c4ccc(-c5ccccc5)[nH]4)ccc3c2)c(C(=O)OC)c1`, the melting point is 203 to 205 °C.

With `Cc1cc2ncc(-c3ccc(C(C)(C)C)cc3)c(N)n2n1`, the melting point stood at 218 °C.

The molecule `CC(C)=CCCC(C)=CCCC(C)=CCCC1(C)CCc2c(C)c(O)c(C)c(C)c2O1` (stereo not given) gave a melting point of 25 to 28 °C.

In the case of `COC(=O)c1ccc(-c2cccc(N)c2)cc1`, the melting point lay within 145 to 148 °C.

The molecule `N=C(NC(=O)OCc1ccccc1)N(C(=O)OCc1ccccc1)C1CCC(CCN2CCN(c3ccccc3)CC2)CC1` (stereo not given) showed a melting point of 136 to 137 °C.

Molecule `CNC(=O)C(=O)CCCCCCSc1nc2ccccc2s1` displayed a melting point of 83 to 84 °C.

Molecule `Cc1ccc(C(=O)c2ccccc2C2=NCCN2C(C)C)cc1` came in with a melting point of 87 to 89 °C.

Molecule `CC(C)(C)CC(C)(C)c1ccc(Nc2ccc(Cc3ccc(Nc4ccc(C(C)(C)CC(C)(C)C)cc4)c4ccccc34)c3ccccc23)cc1` came in with a melting point of 80 °C.

`Cc1ccc(O)c2c1CCC2=NO` had a melting point of 148 to 150 °C.

With `COc1cc(F)ccc1C(O)C1CCCCn2c1nc(-c1ccncn1)cc2=O` (racemic), the melting point was 235 to 237 °C.

Regarding `Cc1ccc(-c2nc(C)cc(Oc3ccccc3)n2)cc1`, the melting point is 90 to 91 °C.

As for `CCOC(=O)c1ccc(C)c(Nc2nccc(-c3cccnc3)n2)c1`, the melting point lay in the range of 95 to 96 °C.

`C[C@@H](NC(=O)c1cnn(-c2ccc(C(F)(F)F)cc2)c1N)[C@](O)(Cn1cncn1)c1ccc(F)cc1F` returned a melting point of 208 to 210 °C.

For `CCC(C)C(NC(=O)OCc1ccccc1)C(=O)NC(C(=O)Nc1n[nH]c(=S)s1)C(C)C` (stereo not given), the melting point fell in the range of 197 to 198 °C.

In turn, `CCN(C)c1nsc(NC(=O)NC)c1C(N)=O` had a melting point of 165 to 168 °C.

With `CCCc1ccc(S(=O)(=O)n2c(CCC(=O)OC)cc3cc(Cl)ccc32)cc1`, the melting point was in the range of 85 to 88 °C.

Molecule `O=C1NCC(c2ccc(F)cc2)N1CCCCS` (stereo not given) displayed a melting point of 102 to 104 °C.

With `COc1ccc(C(CC(N)=O)N2C(=O)c3ccccc3C2=O)cc1` (stereo not given), the melting point lay within 183 to 188 °C.

`CN(C)CC(O)Cn1c2ccccc2c2c3c(c4c5ccccc5n(C)c4c21)C(=O)N(C)C3=O` (stereo not given) yielded a melting point of 198 to 203 °C.

As to `CC(=O)OC(CN(Cc1ccccc1)Cc1ccccc1)c1ccc2c(c1)CCN2C(C)=O` (stereo not given), the melting point was in the range of 91 to 92 °C.

Molecule `Brc1ccc(C(Br)Br)nc1` showed a melting point of 59 to 61 °C.

Regarding `Cc1ccc(-c2cc[nH]c2CC[N+](=O)[O-])cc1`, the melting point lay within 81 to 82 °C.

Regarding `CCCc1nn(C)c2c1N=C(c1cc(/C=C/C(=O)N(C)C)ccc1OCC)NC2`, the melting point was in the range of 219 to 221 °C.

The molecule `CC(=Cc1ccc(F)cc1)CNC(=O)c1ccc(F)cc1` came in with a melting point of 107 to 109 °C.

Consider `CCCC12C3=CCC4CC(OC(C)=O)CCC4(C)C3CCC1(C)C(C(C)CCCC(C)C)CC2O` (stereo not given), for which the melting point was 104 °C.

The molecule `CCn1c(CCOC(N)=O)nc(C(C)C)c1Sc1cc(Cl)cc(Cl)c1` came in with a melting point of 161 to 162 °C.

As for `COC(=O)CCCCC(=O)c1cccc(F)c1O`, the melting point lay within 59 to 60 °C.

The molecule `CCOC(=O)/C=C/c1cc(F)c2ncc(C(=O)NCc3ccc(Cl)cc3)c(O)c2c1` came in with a melting point of 278 to 280 °C.

Take `COC(=O)[C@H](Cc1cc(F)cc(F)c1)NC(=O)OCc1ccccc1`: the melting point is 54 °C.

`COc1nccc2c1C(c1ccccc1C(F)(F)F)C(C(=O)OCCN(C)C)=C(C)N2` (stereo not given) returned a melting point of 137 to 138 °C.

`CC(=O)Nc1nc2c(Oc3cc(N4CCN(C(C)c5ccc(F)cc5)CC4)ncn3)cccc2o1` (stereo not given) registered a melting point of 200 °C.

Take `CNc1ncn(-c2c(C)cccc2Br)c(=O)n1`: the melting point is 238 to 240 °C.

`CC1(C)OC(=O)C(=CSCc2cccs2)C(=O)O1` yielded a melting point of 109 to 111 °C.

Regarding `COCCOc1cc([N+](=O)[O-])c2[nH]c(C3=NCC(C(OC)OC)S3)cc2c1` (stereo not given), the melting point is 100 to 101 °C.

In turn, `Cn1cc(C(=O)NCc2ccc(Cl)cc2)c(=O)c2cc(CO)ccc21` showed a melting point of 168 to 170 °C.

As for `CS(=O)(=O)N1CCC(Nc2nc(Nc3cccc(C(F)(F)F)c3)nc(OCc3ccccn3)n2)CC1`, the melting point lay in the range of 160 to 162 °C.

For the molecule `COc1cccc(C(C)NC(=O)CCc2cnoc2-c2ccc(Cl)cc2)c1` (stereo not given), the melting point lay within 89 to 90 °C.

Regarding `O=C1NCCc2c(OCC3CO3)cccc21` (stereo not given), the melting point fell in the range of 165 to 166 °C.

`COc1ccc(CC2CCC3NC(=O)CCC3C2)cc1` (stereo not given) displayed a melting point of 194 to 196 °C.

The molecule `CCCCCCCNC(=O)N(C)c1ncc(-c2ccc(C[C@H](OCC)C(=O)O)cc2)s1` had a melting point of 97 °C.

Molecule `Cc1csc(NCCN2CCC(Nc3nc4ccccc4n3Cc3ccc(F)cc3)CC2)n1` registered a melting point of 184 °C.

In turn, `Cc1oc(-c2ccccc2)nc1COc1ccc(Cn2cc(CCC(=O)O)c(-c3ccc(F)cc3)n2)cc1` registered a melting point of 139 to 140 °C.

As to `CCc1noc(-c2cn(-c3c(OCc4ccccc4)cccc3OCc3ccccc3)cn2)n1`, the melting point is 149 to 150 °C.

`CCc1[nH]n(C2CCCC2)c2nc(-c3ccccc3OCC(=O)O)nc(=O)c1-2` displayed a melting point of 208 to 209 °C.

`N#Cc1ccc(NC(=O)CN2CCC(Cc3ccccc3)CC2)cc1` registered a melting point of 120 to 124 °C.

Take `CS(=O)(=O)c1ccc(-c2cnn(-c3ccc(F)c(F)c3)c(=O)c2-c2cccs2)cc1`: the melting point fell in the range of 189 to 191 °C.

In turn, `C1=C2NCCCN2Cc2ccccc2C1c1ccccc1` (stereo not given) had a melting point of 227 to 228 °C.
